pIC50: −log10 of the molar value.
Biological target: SHP2 (Homo sapiens (Human), UniProt Q06124)
Experiment: SHP2 Allosteric Inhibition Assay
Format: biochemical
Conditions: 0.5 nM SHP2 activated with 0.5 μM peptide IRS1_pY1172(dPEG8)pY1222, surrogate substrate DiFMUP, fluorescence
Text: SHP2 Allosteric Inhibition Assay SHP2 is allosterically activated through binding of bis-tyrosyl-phorphorylated peptides to its Src Homology 2 (SH2) domains. The latter activation step leads to the release of the auto-inhibitory interface of SHP2, which in turn renders the SHP2 protein tyrosine phosphatase (PTP) active and available for substrate recognition and reaction catalysis. The catalytic activity of SHP2 was monitored using the surrogate substrate DiFMUP in a prompt fluorescence assay format. […] After 30-60 minutes incubation at 25° C., the surrogate substrate DiFMUP (Invitrogen, cat# D6567) was added to the reaction and incubated at 25° C. for 30 minutes. […] The inhibitor dose response curves were analyzed using normalized IC50 regression curve fitting with control based normalization.

Sequence of SHP2 (Q06124 whole entry): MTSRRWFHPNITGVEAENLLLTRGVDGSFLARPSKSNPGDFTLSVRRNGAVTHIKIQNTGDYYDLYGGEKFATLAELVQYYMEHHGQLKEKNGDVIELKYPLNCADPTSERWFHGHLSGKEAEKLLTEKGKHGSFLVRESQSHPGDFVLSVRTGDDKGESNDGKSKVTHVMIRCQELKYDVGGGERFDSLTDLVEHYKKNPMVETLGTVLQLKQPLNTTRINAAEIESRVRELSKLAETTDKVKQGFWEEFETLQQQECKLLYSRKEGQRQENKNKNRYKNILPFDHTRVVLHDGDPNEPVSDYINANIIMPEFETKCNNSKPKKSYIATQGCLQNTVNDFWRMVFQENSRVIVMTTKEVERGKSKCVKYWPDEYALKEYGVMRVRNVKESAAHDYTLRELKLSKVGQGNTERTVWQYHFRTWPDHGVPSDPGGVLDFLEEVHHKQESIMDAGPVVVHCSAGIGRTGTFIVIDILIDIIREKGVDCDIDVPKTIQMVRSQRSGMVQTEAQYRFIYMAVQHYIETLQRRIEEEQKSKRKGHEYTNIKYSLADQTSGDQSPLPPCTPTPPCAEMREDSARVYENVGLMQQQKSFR

With Nc1nc(N2CC3(CCC3N)C2)cnc1Sc1cccc(Cl)c1Cl (racemic) [Example 8, 2-(6-amino-5-((2,3-dichlorophenyl)thio)pyrazin-2-yl)-2-azaspiro[3.3]heptan-5-amine] the pIC50 was 5.27.
For Nc1nc(N2CCC3(CCC3N)CC2)cnc1Sc1cccc(Cl)c1Cl (racemic) [Example 14, 7-(6-amino-5-((2,3-dichlorophenyl)thio)pyrazin-2-yl)-7-azaspiro[3.5]nonan-1-amine], the pIC50 was 7.25.
With Nc1nc(N2CCC3(CC2)CCC(F)(F)C3N)cnc1Sc1cccnc1C(F)(F)F (racemic) [Example 82, racemic-8-(6-amino-5-((2-(trifluoromethyl)pyridin-3-yl)thio)pyrazin-2-yl)-2,2-difluoro-8-azaspiro[4.5]decan-1-amine] the pIC50 was 6.42.
With Nc1nc(N2CCC3(CC2)CCC(F)(F)[C@@H]3N)cnc1Sc1cccnc1C(F)(F)F (racemic) [Example 83a, (R) and (S)-8-(6-amino-5-((2-(trifluoromethyl)pyridin-3-yl)thio)pyrazin-2-yl)-2,2-difluoro-8-azaspiro[4.5]decan-1-amine] the pIC50 was 6.05.
In the case of Nc1nc(N2CCC3(CC2)CCC(F)(F)[C@@H]3N)cnc1Sc1cccnc1C(F)(F)F (racemic) [Example 83b, (R) and (S)-8-(6-amino-5-((2-(trifluoromethyl)pyridin-3-yl)thio)pyrazin-2-yl)-2,2-difluoro-8-azaspiro[4.5]decan-1-amine], the pIC50 was 6.51.
In the case of C[C@H]1CCC2(CCN(c3cnc(Sc4cccnc4C(F)(F)F)c(N)n3)CC2)[C@@H]1N (single isomer, unassigned) [Example 86a], the pIC50 was 8.00.
With C[C@@H]1CCC2(CCN(c3cnc(Sc4cccnc4C(F)(F)F)c(N)n3)CC2)[C@@H]1N (single isomer, unassigned) [Example 86b] the pIC50 was 8.00.
With NC(=O)c1nc(Sc2cccnc2C(F)(F)F)c(N)nc1N1CCC2(CCCC2N)CC1 (stereo in doubt) [Example 21, (S)-5-amino-3-(1-amino-8-azaspiro[4.5]decan-8-yl)-6-((2-(trifluoromethyl)pyridin-3-yl)thio)pyrazine-2-carboxamide] the pIC50 was 8.00.
In the case of Nc1nc(N2CCC3(CCCC3N)CC2)nnc1Sc1cccnc1C(F)(F)F (stereo in doubt) [Example 23, (S)-8-(5-amino-6-((2-(trifluoromethyl)pyridin-3-yl)thio)-1,2,4-triazin-3-yl)-8-azaspiro[4.5]decan-1-amine], the pIC50 was 6.54.
Nc1nc(N2CCC3(CCCC3N)CC2)cnc1Sc1cccc(Cl)c1Cl (centres unmarked) [Example 2] gave a pIC50 of 7.60.
Nc1nc(N2CCC3(CCC[C@H]3N)CC2)cnc1Sc1cccc(Cl)c1Cl [Example 3] was tested, and the pIC50 was 8.00.
Nc1nc(N2CCC3(CCCCC3N)CC2)cnc1Sc1cccc(Cl)c1Cl (centres unmarked) [Example 4] was tested, and the pIC50 was 7.49.
Nc1nc(N2CCC3(CC2)OCC[C@H]3N)cnc1Sc1cccnc1C(F)(F)F [Example 5] showed a pIC50 of 6.46.
In the case of Nc1nc(N2CCC3(CCCCC3N)CC2)cnc1-c1cccc(Cl)c1Cl (centres unmarked) [Example 6], the pIC50 was 7.13.
Work on Nc1nc(N2CCC3(CCCC3N)CC2)cnc1-c1cccc(Cl)c1Cl (centres unmarked) [Example 7] yielded a pIC50 of 7.14.
With Nc1nc(N2CC3(CCC3N)C2)cnc1-c1cccc(Cl)c1Cl (centres unmarked) [Example 9] the pIC50 was 5.96.
With Nc1cccc(Sc2ncc(N3CCC4(CC[C@@H]4N)CC3)nc2N)c1Cl [Example 15] the pIC50 was 7.80.
Compound Nc1nc(N2CCC3(CCC3N)CC2)cnc1-c1cccc(Cl)c1Cl (centres unmarked) [Example 16] has a pIC50 of 6.84.
Nc1nc(N2CCC3(CC2)C(N)CCS3(=O)=O)cnc1-c1cccc(Cl)c1Cl (centres unmarked) [Example 18] showed a pIC50 of 5.45.
Nc1nc(N2CCC3(CC2)C(N)CCS3(=O)=O)cnc1Sc1cccc(Cl)c1Cl (centres unmarked) [Example 19] was tested, and the pIC50 was 5.39.
Nc1nc(N2CCC3(CC[C@@H]3N)CC2)cnc1Sc1cccnc1C(F)(F)F [Example 20, (S)-7-(6-amino-5-((2-(trifluoromethyl)pyridin-3-yl)thio)pyrazin-2-yl)-7-azaspiro[3.5]nonan-1-amine] was tested, and the pIC50 was 7.42.
Compound NC(=O)c1nc(Sc2cccnc2C(F)(F)F)c(N)nc1N1CCC2(CC[C@@H]2N)CC1 [Example 22] has a pIC50 of 7.28.
In the case of Nc1nc(N2CCC3(CCC[C@@H]3N)CC2)ncc1Sc1cccnc1C(F)(F)F [Example 24, (S)-8-(4-amino-5-((2-(trifluoromethyl)pyridin-3-yl)thio)pyrimidin-2-yl)-8-azaspiro[4.5]decan-1-amine], the pIC50 was 5.56.
Work on NC(=O)c1nc(Sc2ccnc(C(F)(F)F)c2Cl)c(N)nc1N1CCC2(CCC[C@H]2N)CC1 [Example 25, (R)-5-amino-3-(1-amino-8-azaspiro[4.5]decan-8-yl)-6-((3-chloro-2-(trifluoromethyl)pyridin-4-yl)thio)pyrazine-2-carboxamide] yielded a pIC50 of 7.24.
Nc1nc(N2CCC3(CCC[C@H]3N)CC2)cnc1Sc1ccnc(N)c1Cl [Example 26, (R)-8-(6-amino-5-((2-amino-3-chloropyridin-4-yl)thio)pyrazin-2-yl)-8-azaspiro[4.5]decan-1-amine] gave a pIC50 of 7.85.
Compound Nc1nc(N2CCC3(CC[C@@H]3N)CC2)cnc1Sc1ccnc(N)c1Cl [Example 27] has a pIC50 of 7.38.
Nc1nc(N2CCC3(CCC[C@H]3N)CC2)cnc1Sc1ccncc1Cl [Example 28, (R)-8-(6-amino-5-((3-chloropyridin-4-yl)thio)pyrazin-2-yl)-8-azaspiro[4.5]decan-1-amine] was tested, and the pIC50 was 7.64.
Nc1nc(N2CCC3(CCC[C@H]3N)CC2)cnc1Sc1cccnc1Cl [Example 29, (R)-8-(6-amino-5-((2-chloropyridin-3-yl)thio)pyrazin-2-yl)-8-azaspiro[4.5]decan-1-amine] showed a pIC50 of 7.82.
In the case of Nc1nc(N2CCC3(CCC[C@H]3N)CC2)cnc1Sc1ccnc(Cl)c1Cl [Example 30, (R)-8-(6-amino-5-((2,3-dichloropyridin-4-yl)thio)pyrazin-2-yl)-8-azaspiro[4.5]decan-1-amine], the pIC50 was 8.52.
Compound Nc1nc(N2CCC3(CC[C@@H]3N)CC2)cnc1Sc1ccnc(Cl)c1Cl [Example 31, (S)-7-(6-amino-5-((2,3-dichloropyridin-4-yl)thio)pyrazin-2-yl)-7-azaspiro[3.5]nonan-1-amine] has a pIC50 of 7.55.
Compound Nc1cccc(Sc2ncc(N3CCC4(CCC[C@H]4N)CC3)nc2N)c1Cl [Example 32, (R)-8-(6-amino-5-((3-amino-2-chlorophenyl)thio)pyrazin-2-yl)-8-azaspiro[4.5]decan-1-amine] has a pIC50 of 7.96.
Work on Nc1nc(N2CCC3(CCC[C@H]3N)CC2)cnc1Sc1ccnc(F)c1Cl [Example 33, (R)-8-(6-amino-5-((3-chloro-2-fluoropyridin-4-yl)thio)pyrazin-2-yl)-8-azaspiro[4.5]decan-1-amine] yielded a pIC50 of 8.30.
Compound NC1=NCCC12CCN(c1cnc(Sc3cccnc3C(F)(F)F)c(N)n1)CC2 [Example 34, 8-(6-amino-5-((2-(trifluoromethyl)pyridin-3-yl)thio)pyrazin-2-yl)-2,8-diazaspiro[4.5]dec-1-en-1-amine] has a pIC50 of 7.49.
Work on Nc1nc(N2CCC3(CC2)OCCC3N)cnc1Sc1cccnc1C(F)(F)F (centres unmarked) [Example 35] yielded a pIC50 of 6.63.
Work on NC(=O)c1cc(Sc2cccnc2C(F)(F)F)c(N)nc1N1CCC2(CCC[C@H]2N)CC1 [Example 39, (R)-6-amino-2-(1-amino-8-azaspiro[4.5]decan-8-yl)-5-((2-(trifluoromethyl)pyridin-3-yl)thio)nicotinamide] yielded a pIC50 of 6.93.

— patent US10336774B2, “N-azaspirocycloalkane substituted N-heteroaryl compounds and compositions for inhibiting the activity of SHP2” (NOVARTIS AG, priority 2014, dated 2019)
